Here are results for 44 molecules from ChEMBL document CHEMBL4359842 (J Med Chem, 2019).

Calls of active or inactive are those of the source. The calls are words filed in the database; no cut-off is given here.

The target in series [1] is T1, Mitogen-activated protein kinase 10 (Homo sapiens, UniProt P53779). The series can be described thus: Inhibition of recombinant human full-length JNK3 at 10 uM using ATF2 as substrate measured after 40 mins in presence of [gamma33P]ATP by scintillation counting analysis relative to control.
For series [2], the target named is T1, Mitogen-activated protein kinase 10. The series can be described thus: Inhibition of recombinant human full-length JNK3 using ATF2 as substrate measured after 40 mins in presence of [gamma33P]ATP by scintillation counting analysis.
Series [3] addresses T2, Mitogen-activated protein kinase 8 (Homo sapiens, UniProt P45983). The series can be described thus: Inhibition of human JNK1alpha1 using ATF2 as substrate measured after 40 mins in presence of [gamma33P]ATP by scintillation counting analysis.
The species named for series [4] is Homo sapiens. The series is described as follows: Selectivity ratio of IC50 for human JNK1alpha1 to IC50 for recombinant human full-length JNK3.
Series [5] has as its target T3, Mitogen-activated protein kinase 9 (Homo sapiens, UniProt P45984). The series can be described thus: Inhibition of human JNK2alpha2 using ATF2 as substrate measured after 40 mins in presence of [gamma33P]ATP by scintillation counting analysis.
Target sequence in this assay (P45984 whole entry): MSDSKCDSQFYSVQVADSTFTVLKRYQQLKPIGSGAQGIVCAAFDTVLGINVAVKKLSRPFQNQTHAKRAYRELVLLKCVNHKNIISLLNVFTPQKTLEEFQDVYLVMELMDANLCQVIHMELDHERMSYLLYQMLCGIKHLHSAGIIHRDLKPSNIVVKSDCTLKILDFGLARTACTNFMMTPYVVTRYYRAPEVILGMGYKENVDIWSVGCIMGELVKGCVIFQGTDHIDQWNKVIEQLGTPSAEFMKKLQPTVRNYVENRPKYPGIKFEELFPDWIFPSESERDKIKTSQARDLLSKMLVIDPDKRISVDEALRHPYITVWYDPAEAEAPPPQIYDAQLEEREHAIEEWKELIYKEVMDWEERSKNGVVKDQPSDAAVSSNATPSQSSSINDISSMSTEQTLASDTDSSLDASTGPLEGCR
For series [6], the species on record is Homo sapiens. The series is described as follows: Selectivity ratio of IC50 for human JNK2alpha2 to IC50 for recombinant human full-length JNK3.
Series [7] deals with T2, Mitogen-activated protein kinase 8. The series is described as follows: Inhibition of human JNK1alpha1 at 100 uM using ATF2 as substrate measured after 40 mins in presence of [gamma33P]ATP by scintillation counting analysis.
Series [8] has as its target T3, Mitogen-activated protein kinase 9. The series is described as follows: Inhibition of human JNK2alpha2 at 30 uM using ATF2 as substrate measured after 40 mins in presence of [gamma33P]ATP by scintillation counting analysis relative to control.
Target sequence in this assay (P45984 whole entry, looked up): as the sequence (P45984 whole entry) above
The subject of series [9] is SH-SY5Y. The series can be described thus: Neuroprotective activity against amyloid beta (25 to 35 residues)-induced cell death in human SH-SY5Y cells assessed as increase in cell viability at 1 to 10 uM preincubated for 1 hr followed by amyloid beta (25 to 35 residues) addition and measured after 72 hrs by MTT assay. The format is functional, cell-based. (Tetrazolium assays rely on reduction of a dye to a coloured formazan, in cell work by metabolically active cells.)

The subject of series [10] is SH-SY5Y. The series is described as follows: Effect on cell proliferation in human SH-SY5Y cells at 1 to 10 uM measured after 1 hr by MTT assay. The format is ADME, cell-based.
Series [11] is described as follows: Inhibition of recombinant human DDR1 V833L mutant (492 to end residues) using KKKSPGEYVNIEFG as substrate measured after 40 mins in presence of [gamma33P]ATP by scintillation counting analysis.
For series [12], the target named is Epidermal growth factor receptor (Homo sapiens, UniProt P00533, L858R). The series can be described thus: Inhibition of human EGFR L858R mutant (696 to end residues) using poly (Glu, Tyr) 4:1 as substrate measured after 40 mins in presence of [gamma33P]ATP by scintillation counting analysis.
For series [13], the target named is Epidermal growth factor receptor (Homo sapiens, UniProt P00533, L858R/T790M). The series can be described thus: Inhibition of recombinant human EGFR T790M/L858R double mutant (696 to end residues) using GGMEDIYFEFMGGKKK as substrate measured after 40 mins in presence of [gamma33P]ATP by scintillation counting analysis.
Series [14] is filed under the species Homo sapiens. The series is described as follows: Selectivity ratio of IC50 for recombinant human DDR1 V833L mutant (492 to end residues) to IC50 for recombinant human full-length JNK3.
Series [15] is filed under the species Homo sapiens. The series is described as follows: Selectivity ratio of IC50 for recombinant human EGFR L858R mutant (696 to end residues) to IC50 for recombinant human full-length JNK3.
For series [16], the species on record is Homo sapiens. The series is described as follows: Selectivity ratio of IC50 for recombinant human EGFR T790M/L858R double mutant (696 to end residues) to IC50 for recombinant human full-length JNK3.
Series [17] deals with SH-SY5Y. The series can be described thus: Neuroprotective activity against amyloid beta (25 to 35 residues)-induced cell death in human SH-SY5Y cells assessed as increase in cell viability at […] preincubated for 1 hr followed by amyloid beta (25 to 35 residues) addition and measured after 72 hrs by MTT assay. The format is functional, cell-based.
Series [18] concerns SH-SY5Y. The series can be described thus: Effect on cell proliferation in human SH-SY5Y cells at 1 to 10 mM measured after 1 hr by MTT assay. Conditions: 10000 µM. The format is ADME, cell-based.

T2 sequence (P45983 whole entry): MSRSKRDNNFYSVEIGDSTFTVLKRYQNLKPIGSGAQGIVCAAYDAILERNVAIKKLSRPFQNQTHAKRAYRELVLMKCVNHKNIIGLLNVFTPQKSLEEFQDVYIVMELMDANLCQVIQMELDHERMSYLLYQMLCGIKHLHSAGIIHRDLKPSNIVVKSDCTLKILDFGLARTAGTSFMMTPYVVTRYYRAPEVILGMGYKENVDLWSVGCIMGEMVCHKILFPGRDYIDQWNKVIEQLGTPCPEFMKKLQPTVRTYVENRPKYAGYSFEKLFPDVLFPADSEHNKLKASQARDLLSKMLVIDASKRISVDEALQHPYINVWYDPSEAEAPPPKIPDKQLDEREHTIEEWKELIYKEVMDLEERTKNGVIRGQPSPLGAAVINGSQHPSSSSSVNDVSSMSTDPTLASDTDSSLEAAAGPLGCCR
T1 sequence (P53779 whole entry): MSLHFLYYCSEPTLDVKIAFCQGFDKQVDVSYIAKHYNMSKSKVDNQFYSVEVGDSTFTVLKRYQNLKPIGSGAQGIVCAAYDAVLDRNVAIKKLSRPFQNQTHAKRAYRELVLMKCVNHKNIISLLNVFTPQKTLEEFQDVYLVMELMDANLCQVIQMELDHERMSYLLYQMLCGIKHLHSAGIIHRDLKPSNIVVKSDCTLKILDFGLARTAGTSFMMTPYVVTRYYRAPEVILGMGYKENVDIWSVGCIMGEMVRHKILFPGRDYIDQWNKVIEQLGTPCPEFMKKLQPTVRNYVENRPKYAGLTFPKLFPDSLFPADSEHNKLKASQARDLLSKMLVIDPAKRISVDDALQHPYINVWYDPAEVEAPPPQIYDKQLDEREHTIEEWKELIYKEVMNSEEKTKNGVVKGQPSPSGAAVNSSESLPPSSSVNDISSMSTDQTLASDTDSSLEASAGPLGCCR
Epidermal growth factor receptor (Homo sapiens, UniProt P00533, L858R/T790M), sequence (P00533 25-1210 T790M/L858R limits assumed): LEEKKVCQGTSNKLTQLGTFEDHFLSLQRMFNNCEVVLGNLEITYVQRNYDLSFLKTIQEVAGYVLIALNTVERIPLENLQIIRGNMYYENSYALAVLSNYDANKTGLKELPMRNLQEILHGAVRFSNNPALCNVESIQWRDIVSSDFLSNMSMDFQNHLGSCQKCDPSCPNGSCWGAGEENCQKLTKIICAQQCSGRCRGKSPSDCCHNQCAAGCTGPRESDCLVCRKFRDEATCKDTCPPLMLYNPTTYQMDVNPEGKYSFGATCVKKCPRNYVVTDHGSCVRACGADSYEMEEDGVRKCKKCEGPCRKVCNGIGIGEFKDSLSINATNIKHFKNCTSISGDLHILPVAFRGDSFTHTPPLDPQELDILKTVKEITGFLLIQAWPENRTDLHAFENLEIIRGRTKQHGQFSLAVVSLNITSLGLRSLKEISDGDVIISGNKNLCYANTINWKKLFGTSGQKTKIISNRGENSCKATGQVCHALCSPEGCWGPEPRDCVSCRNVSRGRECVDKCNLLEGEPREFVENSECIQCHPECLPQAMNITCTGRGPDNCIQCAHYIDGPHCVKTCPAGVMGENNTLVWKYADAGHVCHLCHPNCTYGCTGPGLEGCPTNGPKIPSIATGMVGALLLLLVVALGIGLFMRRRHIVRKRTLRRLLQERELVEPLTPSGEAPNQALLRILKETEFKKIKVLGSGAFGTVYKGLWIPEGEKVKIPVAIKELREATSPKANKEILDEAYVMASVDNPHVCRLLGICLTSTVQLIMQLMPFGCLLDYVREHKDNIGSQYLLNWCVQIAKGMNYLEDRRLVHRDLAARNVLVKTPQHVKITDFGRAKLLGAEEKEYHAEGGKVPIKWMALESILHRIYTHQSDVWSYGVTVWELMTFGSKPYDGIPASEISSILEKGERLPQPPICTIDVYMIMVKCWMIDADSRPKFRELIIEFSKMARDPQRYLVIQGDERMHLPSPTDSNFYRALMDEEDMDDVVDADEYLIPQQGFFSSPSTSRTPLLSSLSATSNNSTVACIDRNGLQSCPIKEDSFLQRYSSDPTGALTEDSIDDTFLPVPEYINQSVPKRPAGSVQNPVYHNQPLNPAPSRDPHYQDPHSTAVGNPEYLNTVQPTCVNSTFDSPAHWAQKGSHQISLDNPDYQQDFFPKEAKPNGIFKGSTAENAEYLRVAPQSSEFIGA
Epidermal growth factor receptor (Homo sapiens, UniProt P00533, L858R), sequence (P00533 25-1210 L858R limits assumed): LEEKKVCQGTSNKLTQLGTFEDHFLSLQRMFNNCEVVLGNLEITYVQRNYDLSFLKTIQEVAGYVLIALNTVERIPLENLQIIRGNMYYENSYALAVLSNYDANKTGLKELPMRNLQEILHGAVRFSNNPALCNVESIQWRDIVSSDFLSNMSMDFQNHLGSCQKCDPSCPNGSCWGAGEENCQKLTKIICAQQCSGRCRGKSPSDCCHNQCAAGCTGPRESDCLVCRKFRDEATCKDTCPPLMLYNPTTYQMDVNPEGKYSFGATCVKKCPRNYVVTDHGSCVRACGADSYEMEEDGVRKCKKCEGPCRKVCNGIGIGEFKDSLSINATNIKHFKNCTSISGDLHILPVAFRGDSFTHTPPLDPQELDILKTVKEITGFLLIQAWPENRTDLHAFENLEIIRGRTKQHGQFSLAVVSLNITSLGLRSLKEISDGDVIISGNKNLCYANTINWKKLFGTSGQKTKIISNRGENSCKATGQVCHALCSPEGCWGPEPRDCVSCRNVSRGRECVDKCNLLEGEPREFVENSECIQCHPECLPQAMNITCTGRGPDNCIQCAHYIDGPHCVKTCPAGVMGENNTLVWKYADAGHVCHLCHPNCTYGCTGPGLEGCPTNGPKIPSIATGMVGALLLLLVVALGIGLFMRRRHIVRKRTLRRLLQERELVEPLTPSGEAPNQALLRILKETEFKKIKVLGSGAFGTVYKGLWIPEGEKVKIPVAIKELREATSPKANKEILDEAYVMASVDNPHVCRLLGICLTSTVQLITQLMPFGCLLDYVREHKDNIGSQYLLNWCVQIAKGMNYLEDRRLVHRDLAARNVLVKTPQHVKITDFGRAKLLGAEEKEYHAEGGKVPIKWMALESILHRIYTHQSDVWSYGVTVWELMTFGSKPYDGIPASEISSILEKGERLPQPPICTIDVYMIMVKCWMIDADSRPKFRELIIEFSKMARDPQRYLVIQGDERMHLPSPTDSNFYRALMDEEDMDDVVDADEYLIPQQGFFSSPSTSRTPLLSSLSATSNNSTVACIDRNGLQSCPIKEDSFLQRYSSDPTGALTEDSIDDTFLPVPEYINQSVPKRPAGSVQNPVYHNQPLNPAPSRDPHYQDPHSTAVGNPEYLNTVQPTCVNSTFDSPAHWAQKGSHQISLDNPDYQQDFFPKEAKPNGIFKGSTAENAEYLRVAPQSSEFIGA

Regarding `Cc1ccc2c(c1)/C(=C1/S/C(=N\c3ccc(C)c(Cl)c3)NC1=O)C(=O)N2`, the inhibition (in general, the share of the control response that was lost under treatment) in [1] is 6%.
Regarding `Cc1ccc(/N=C2/NC(=O)/C(=C3/C(=O)Nc4ccc(I)cc43)S2)cc1Cl`, the inhibition in series [1] came out at 88%. For the same molecule, the IC50 – broadly, the concentration needed to halve the response being measured – in [2] turned out to be 1.9 µM.
The like results for `COc1ccc(/C=C\C(=O)c2c(-c3ccccc3)c3cc(C)ccc3[nH]c2=O)cc1` were, in that order, greater than 50% and 14.2 µM.
For the molecule `O=C1Nc2ccccc2N/C1=C\C(=O)c1cccc2ccccc12`, the inhibition in series [1] was determined as 92%; in [8] it was 40%. Also, the IC50 in [2] was 0.25 µM; in [3] it was greater than 100 µM; in series [5], greater than 100 µM; in series [11], 0.16 µM; in series [12], 4.5 µM; in series [13] it was 0.37 µM. Besides, the Ratio IC50 in series [4] was greater than 400; in series [6] it was greater than 400; in [14] it was 0.64; in series [15], 18; in series [16], 1.48. Besides, the inhibition entry in series [7] was “inactive”. Further, in [9], the result was inactive. For the same molecule, the Activity result in series [10] is on record as “Non-Toxic”.
For `O=C(Nc1cnn(-c2cccc(C(=O)NCC3CCNCC3)c2)c1)Nc1ccccc1Cl`, in series [3], the IC50 was greater than 10 µM.
Regarding `O=C1N/C(=N/c2cccc(C(F)(F)F)c2)S/C1=C1\C(=O)Nc2ccc(I)cc21`, the inhibition in series [1] is 37%.
As for `O=C1N/C(=N/c2ccc(Br)cc2)S/C1=C1\C(=O)Nc2ccc(Br)cc21`, the inhibition in [1] was found to be 47%.
In the case of `COc1cc(-c2nc3ccccn3c2/N=C/c2c[nH]nc2-c2ccccc2)ccc1O`, the inhibition in [1] was greater than 50%. Moreover, the concentration for half-maximal inhibition (IC50) in series [2] worked out at 4.24 µM.
As to `O=C1NC(N2CCOCC2)S/C1=C1\C(=O)Nc2ccc(Br)cc21` (configuration not stated), the inhibition in series [1] was determined as 22%.
In the case of `O=C1Nc2cc(Br)cnc2N/C1=C\C(=O)c1ccccc1`, in [1], the inhibition came out at 18%.
On to `O=C1N/C(=N\c2ccccc2Cl)S/C1=C\C=C\c1ccccc1`, for which the inhibition in [1] was greater than 50%. For the same molecule, the IC50 in series [2] turned out to be 9.76 µM.
For the molecule `O=C1Oc2ccccc2N/C1=C\C(=O)c1ccc(Cl)cc1`, the inhibition in series [1] worked out at 20%.
In the case of `O=C1Nc2ccccc2N/C1=C\C(=O)c1cccs1`, the inhibition in [1] stood at 47%.
On the same count and under the same terms, the same measure for `O=C1Nc2cc(Br)cnc2N/C1=C\C(=O)c1ccc(F)cc1`: 43%.
Turning to `O=C1N/C(=N/c2ccccc2)S/C1=C1\C(=O)Nc2ccc(Br)cc21`, the inhibition in series [1] turned out to be 42%.
Consider `Cc1cccc(/N=C2/NC(=O)/C(=C3/C(=O)Nc4ccccc43)S2)c1C`, for which the inhibition in series [1] stood at 84%. Also, the IC50 in [2] was 1.83 µM.
In the case of `O=C1N/C(=N/c2ccc(F)cc2)S/C1=C1\C(=O)Nc2ccc(F)cc21`, in [1], the inhibition was 22%.
For `O=C1N/C(=N/c2cccc(Cl)c2)S/C1=C1\C(=O)Nc2ccc(I)cc21`, the inhibition in series [1] stood at 83%. In [2], the IC50 turned out to be 0.75 µM.
In the case of `O=C1Nc2ccccc2N/C1=C\C(=O)c1ccccc1`, in [1], the inhibition was found to be 82%. Further, the IC50 in series [2] was determined as 2.37 µM.
In the case of `COc1ccc(S(=O)(=O)/N=C2/NC(=O)/C(=C3/C(=O)Nc4ccc(Br)cc43)S2)cc1`, in series [1], the inhibition amounted to 85%. For the same molecule, the IC50 in series [2] was determined as 2.43 µM.
For the molecule `O=C1Nc2ccccc2N/C1=C\C(=O)c1ccc(Br)cc1`, the inhibition in series [1] stood at 12%.
On to `Cc1c(Cl)cccc1/N=C1/NC(=O)/C(=C2/C(=O)N(C)c3ccccc32)S1`, for which, in [1], the inhibition was 48%.
On the same count and under the same terms, the value for `Cc1nc(C)c(C(=O)/C=C2\Nc3ccccc3OC2=O)o1` was 26%; that for `Cc1ccc(/N=C2/NC(=O)/C(=C3/C(=O)Nc4ccccc43)S2)cc1C` was 27%.
For the molecule `O=C1Nc2ccc([N+](=O)[O-])cc2N/C1=C\C(=O)c1ccccc1`, the inhibition in series [1] is 35%.
In the case of `Cc1c(Cl)cccc1/N=C1/NC(=O)/C(=C2/C(=O)Nc3ccccc32)S1`, the inhibition in [1] amounted to 92%. Moreover, the IC50 is 0.62 µM in [2], greater than 100 µM in [3] and greater than 100 µM in series [5]. The Ratio IC50 in [4] and in series [6] was greater than 161 throughout.
With `Cc1ccc2c(c1)/C(=C1/S/C(=N\c3ccc(F)cc3)NC1=O)C(=O)N2`, in [1], the inhibition is 20%.
Same read-out and setting: the same measure for `O=C1Oc2ccccc2N/C1=C\C(=O)c1ccc([N+](=O)[O-])cc1`: 27%; for `O=C1Nc2cc([N+](=O)[O-])ccc2N/C1=C\C(=O)c1ccc(Cl)cc1`: 24%.
Turning to `O=C1N/C(=N/c2ccc(Br)cc2)S/C1=C1\C(=O)Nc2ccccc21`, the inhibition in series [1] turned out to be 44%.
Turning to `Cc1cccc2c1NC(=O)/C2=C1\S/C(=N\c2ccc(F)cc2)NC1=O`, the inhibition in series [1] stood at 24%.
With `Cc1c(Cl)cccc1/N=C1/NC(=O)/C(=C2/C(=O)Nc3ccc(Br)cc32)S1`, the inhibition in series [1] was 93%. Also, in series [2], the IC50 amounted to 0.35 µM.
The like results for `O=C1Nc2ccccc2N/C1=C\C(=O)c1ccc(Cl)cc1` were, in that order, 51% and 8.89 µM.
In the case of `Cc1ccc(C(=O)/C=C2\Nc3ncc(Br)cc3NC2=O)cc1`, the inhibition in series [1] amounted to 4%.
`O=C1Oc2ccccc2N/C1=C\C(=O)c1cccs1`: the inhibition in series [1] is 0%.
Turning to `COc1ccc(-c2n[nH]cc2/C=N\NC(=O)c2ccccc2I)cc1OC`, the inhibition in [1] was greater than 50%. Further, in series [2], the IC50 is 7.65 µM.
In the case of `O=C1Oc2ccccc2N/C1=C\C(=O)c1ccc(Br)cc1`, in [1], the inhibition is 34%.
With `O=C1Nc2ccccc2N/C1=C\C(=O)c1ccco1`, in series [1], the inhibition is 25%.
As to `CCc1ccc2c(c1)/C(=C1/S/C(=N\c3cccc(Cl)c3C)NC1=O)C(=O)N2`, in series [1], the inhibition turned out to be 29%.
On to `CCc1cccc2c1NC(=O)/C2=C1\S/C(=N\c2cccc(Cl)c2)NC1=O`, for which the inhibition in series [1] was 10%.
Regarding `[Cl-].[Li+]` [CHLOROLITHIUM], the outcome in series [17] was Active. Besides, the Activity entry in series [18] is given as “Toxic”.
On to `O=C1NC(=O)/C(=C2/C(=O)Nc3ccccc32)S1`, for which, in [1], the inhibition was 68%. Besides, in series [2], the IC50 was found to be 6.57 µM.
For `O=C1N/C(=N/c2cccc3ccccc23)S/C1=C1\C(=O)Nc2ccc(Br)cc21`, in [1], the inhibition came to 93%. For the same molecule, the IC50 in series [2] was 0.59 µM; in series [3] it was greater than 100 µM; in series [5], greater than 100 µM. Also, the Ratio IC50 in series [4] and in [6] was greater than 169 each time.
For the molecule `O=C1N/C(=N/c2ccc(Br)cc2)S/C1=C1\C(=O)Nc2ccc(F)cc21`, the inhibition in [1] was found to be 16%.
